SMILES strings stand for the structures. Several values for one entry are separate records, joined by “and”; a condition that tells them apart may be missing. Identical values can stand only once.

What all share (type): biochemical
The test system of one assay is Cerrena sp. laccase. As to the kind of experiment: Soluble indigo bleaching at two pH values, Cerrena sp. laccase (Example 3). On the procedure:
(§1) A saturated solution of indigo in N-methylpyrrolidone (NMP) was prepared by stirring indigo (30 mg) in NMP (10 ml) at room temperature for 5 hours. The NMP solution was diluted 10-fold into an aqueous buffer solution resulting in a blue solution. For example, dilution into 50 mM sodium acetate buffer at pH 5, or 50 mM sodium phosphate buffer at pH 7. Solutions were shaken well immediately before use.
(§2) The assay for the bleaching of the solubilized indigo substrate was performed in a 96-well microtitre plate whereby each well received the soluble indigo solution in 50 mM sodium acetate buffer at pH 5 (180 uL), laccase (10 ppm enzyme) and mediator solution (from a 20 mM stock solution in methanol). The total volume of each well was adjusted to 200 uL with deionzed water. A control containing laccase only was run in duplicate. The plate was sealed and incubated at 50° C. for 2 hours at 800 rpm on a heated agitator (Thermomixer, Eppendorf). Following this period, the plates were unsealed and a solution of ascorbic acid (20 uL of a 10% aqueous solution) added to each well in order to reduce the oxidized forms of the mediators. The extent of indigo bleaching was then assessed by determining the absorbance for each well at 600 nm using a microtitre plate reader. The lower the absorbance reading, the greater the extent of indigo bleaching.
(§3) Laccases derived from Myceliophtora (Denilite® II, Novozymes, Bagsvaerd, Denmark), Thielavia (Ecostone LCC10, AB enzymes, Darmstadt, Germany) and Cerrena sp. were assessed for their ability to bleach solubilized indigo in conjunction with low molecular weight mediators at two pH values.
(§4) Bleaching of solubilized indigo in 96-well microtitre plates was performed as described in Example 1, using 3 different laccases at pH values of 5 and 7.

Assay [1] has as its system Thielavia laccase (Ecostone LCC10). In words: Soluble indigo bleaching at two pH values, Thielavia laccase (Example 3). The protocol: as §1, §2, §3, §4
Assay [2] relates to Thielavia sp. laccase (Ecostone LCC10). In words: Bleaching of solubilized indigo, Thielavia sp. laccase with mediators (Example 2). As to conditions: laccase 10 ppm, pH 5, 50° C., 2 hours, n = 2. On the procedure:
An assay for the bleaching of the solubilized indigo substrate by laccase/mediator combinations was performed in a 96-well microtitre plate as follows
as §1, §2

For assay [3], the system named is Myceliophtora laccase (Denilite II). As to the kind of experiment: Soluble indigo bleaching at two pH values, Myceliophtora laccase (Example 3). On the procedure:
as §1, §2, §3, §4

A further assay deals with C. unicolor laccase. In words: Bleaching of denim swatches with C. unicolor laccase (Example 4). Details: key to ΔL Denim swatch Frontside / Δb Denim swatch Frontside / ΔL Denim swatch Backside / Δb Denim swatch Backside / Δa Denim swatch Backside / Δa Denim swatch Frontside: difference between initial and final CIE L*a*b* values; key to ΔE (total color difference) Denim swatch Backside / ΔE (total color difference) Denim swatch Frontside: ΔE = (ΔL²+Δa²+Δb²)^1/2 from CIE L*a*b* before/after bleaching. The following applies: for ΔE (total color difference) Denim swatch Backside / ΔE (total color difference) Denim swatch Frontside / ΔL Denim swatch Backside / ΔL Denim swatch Frontside / Δa Denim swatch Backside / Δb Denim swatch Backside / Δb Denim swatch Frontside: laccase 20 ppm, pH 6, 50° C., 2 hours. On the procedure: Denim legs (made out of sulfur bottom/indigo dyed denim fabric from Cone Mill, style number 1662P) were pretreated with IndiAge® 2XL at a dose of 1 gram per liter in a 50 lb lab scale tumbling washer. The liquor ratio was 6 to 1 (5 kg substrate in 30 liters of water) and the treatment was performed at 55° C. at pH 4.5 for 1 hour. A warm rinse followed the cellulase treatment, after which the fabric was dried in a tumble dryer. A punch press was used to cut ⅝ inch denim disks from IndiAge® 2XL pretreated denim legs. Each denim disk is pre read with a Chroma Meter CR-200 by Minolta in order to determine the CIE L*a*b* values of both the front and backside of the fabric disk.
One denim disk is placed in each well of two duplicate 12 well micro-titer plates. Each well received C. unicolor laccase (20 uL of 1/20 dilution, approx. 20 ppm), mediator (200, 100, 50 or 20 uL of a 20 mM stock solution in methanol) and 50 mM potassium phosphate buffer, pH 6 for a total volume of 2 mL/well. The mediators were methyl syringate (MS), 4-cyano-2,6-dimethoxyphenol (SN) and 3,4,5-trimethoxyphenol (TMP). The plates were sealed and incubated at 50° C. for 2 hours at 150 rpm in a standard incubator. Following this period, the swatches were removed from the plates and carefully placed on a filter paper in a Buchner funnel and washed with copious amounts of water, followed by drying of the residual water under high vacuum overnight. The swatches were then re-read with the chromometer in order to determine the CIE L*a*b* values of both the front and backside of the disk following bleaching. The total color difference (ΔE) is calculated from the difference between the initial and final CIE L*a*b* values according to the formula ΔE=(ΔL^2+Δa^2+Δb^2)^1/2 The total color differences (ΔE) as a function of mediator concentration are plotted in FIGS. 5 and 6.

For `COc1cc(C(N)=O)cc(OC)c1O` [SA, 4-carboxamido-2,6-dimethoxyphenol], the “ΔA600 Cerrena” value in the assay on Cerrena sp. laccase (pH 5, mediator 250 uM) is 0.142; in the assay with Cerrena sp. laccase (pH 7, mediator 250 uM), 0.128. The “ΔA600 Thielavia” value in assay [1] (pH 5, mediator 250 uM) came to 0.170; in assay [1] (pH 7, mediator 250 uM), 0.162. Further, the “ΔA600 (change in absorbance at 600 nm relative to control)” value in assay [2] (mediator 50 mM Concentration (head)) worked out at 0.088; in assay [2] (mediator 500 mM Concentration (head)), 0.170. For the same compound, the “ΔA600 Myceliophtora” value in assay [3] (pH 5, mediator 250 uM) amounted to 0.254; in assay [3] (pH 7, mediator 250 uM) it was 0.220.
Take `COc1cc(C#N)cc(OC)c1O` [SN, 4-cyano-2,6-dimethoxyphenol]: the “effectiveness as mediator for denim swatch bleaching” value with C. unicolor laccase (C. unicolor laccase 20 ppm, 200-2000 uM mediator) was “most effective mediator”. In the assay on C. unicolor laccase (mediator 200 uM), the “ΔE (total color difference) Denim swatch Backside” value was 10.39 and 10.37; the “ΔE (total color difference) Denim swatch Frontside” value was 7.24 and 8.51; the “ΔL Denim swatch Backside” value is 8.38 and 8.67; the “ΔL Denim swatch Frontside” value is 6.63 and 7.98. Moreover, in the assay on C. unicolor laccase (mediator 200 uM), the “Δa Denim swatch Backside” value is 0.54 and 0.38; the “Δb Denim swatch Backside” value is 6.12 and 5.67; the “Δb Denim swatch Frontside” value was 2.57 and 2.67. In the assay on C. unicolor laccase (mediator 500 uM), the “ΔE (total color difference) Denim swatch Backside” value was 13.43 and 14.11; the “ΔE (total color difference) Denim swatch Frontside” value was 15.59 and 13.17; the “ΔL Denim swatch Backside” value was 10.71 and 11.6; the “ΔL Denim swatch Frontside” value was 14.46 and 12.06. Further, in the assay with C. unicolor laccase (mediator 500 uM), the “Δa Denim swatch Backside” value is 0.35 and 0.38; the “Δb Denim swatch Backside” value was 8.1 and 8.03; the “Δb Denim swatch Frontside” value is 5.51 and 4.92. Besides, in the assay with C. unicolor laccase (mediator 1000 uM), the “ΔE (total color difference) Denim swatch Backside” value is 13.98 and 15.19; the “ΔE (total color difference) Denim swatch Frontside” value was 14.75 and 14.92; the “ΔL Denim swatch Backside” value is 11.45 and 12.1; the “ΔL Denim swatch Frontside” value is 13.54 and 13.84. Also, in the assay on C. unicolor laccase (mediator 1000 uM), the “Δa Denim swatch Backside” value was 0.07 and 0.14; the “Δb Denim swatch Backside” value was 8.02 and 9.19; the “Δb Denim swatch Frontside” value was 5.47 and 4.98. In the assay on C. unicolor laccase (mediator 2000 uM), the “ΔE (total color difference) Denim swatch Backside” value was 15.31 and 16.59; the “ΔE (total color difference) Denim swatch Frontside” value was 16.03 and 14.48; the “ΔL Denim swatch Backside” value is 12.34 and 13.58; the “ΔL Denim swatch Frontside” value is 14.79 and 13.23. Also, in the assay with C. unicolor laccase (mediator 2000 uM), the “Δb Denim swatch Backside” value was 9.06 and 9.52; the “Δb Denim swatch Frontside” value was 5.8 and 5.58.

The values above are taken from patent US8282688B2, “Laccase mediators and methods of use” (Danisco US Inc., priority 2006, dated 2012).
